BindingDB's records for doi:10.1016/j.bmc.2015.05.058 (Washington University, 2015)

What follows are compounds tested against T1, Vesicular acetylcholine transporter (Homo sapiens, UniProt Q16572) (assay: Displacement of [3H]-vesamicol from human VAChT after 24 hrs by liquid scintillation spectrometry analysis).
T1 sequence (Q16572 whole entry): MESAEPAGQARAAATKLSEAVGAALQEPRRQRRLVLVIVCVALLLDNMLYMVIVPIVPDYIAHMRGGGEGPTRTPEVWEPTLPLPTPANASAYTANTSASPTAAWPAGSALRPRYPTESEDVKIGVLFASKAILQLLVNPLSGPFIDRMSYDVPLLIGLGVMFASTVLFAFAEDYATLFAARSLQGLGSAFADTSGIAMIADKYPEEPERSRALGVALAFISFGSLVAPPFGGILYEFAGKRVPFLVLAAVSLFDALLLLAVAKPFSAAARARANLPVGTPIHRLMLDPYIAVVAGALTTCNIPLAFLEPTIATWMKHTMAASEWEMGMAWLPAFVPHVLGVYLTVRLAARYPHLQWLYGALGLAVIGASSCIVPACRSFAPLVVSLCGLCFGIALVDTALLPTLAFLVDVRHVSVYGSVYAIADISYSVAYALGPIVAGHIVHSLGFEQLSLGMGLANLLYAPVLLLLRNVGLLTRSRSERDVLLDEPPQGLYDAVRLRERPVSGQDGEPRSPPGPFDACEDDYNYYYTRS

Row | Ki [nM] | Compound
1 | 1.6 | O=C(c1ccc(F)cc1)C1CCN([C@@H]2Cc3c(cccc3OCCF)C[C@H]2O)CC1
2 | 93 | O=C(c1ccc(F)cc1)C1CCN([C@@H]2Cc3cccc(OCCF)c3C[C@H]2O)CC1

Row | Compound | Ki [nM]
3 | O=C(c1ccc(F)cc1)C1CCN(C2Cc3c(cccc3OCCF)CC2O)CC1 (stereo not drawn) | 13
